Numbering of substitutions follows the chain as printed. Names may count otherwise.
How the values were obtained:
[1] = biological target: T1, Arabidopsis HPPD single point mutant SEQ ID No. 35 (Arabidopsis thaliana, UniProt P93836, E252S); assay: biochemical; conditions: for pI50: E252S mutant, 2 mM HPP, 3 minutes incubation
T1 construct: made in house; host or cells: E. coli BL21 (DE3)
Text: (§1) In this content, pI50-value means the log value of the concentration of inhibitor necessary to inhibit 50% of the enzyme activity in molar concentration.

[2] = biological target: T2, Arabidopsis HPPD single point mutant SEQ ID No. 40 (Arabidopsis thaliana, UniProt P93836, V269A); assay: biochemical; conditions: for pI50: V269A mutant (SEQ ID No. 40), 2 mM HPP, 3 minutes incubation
T2 construct: made in house; host or cells: E. coli BL21 (DE3)
T2 sequence (P93836 other isoform, or with tags, fused parts or gaps V269A): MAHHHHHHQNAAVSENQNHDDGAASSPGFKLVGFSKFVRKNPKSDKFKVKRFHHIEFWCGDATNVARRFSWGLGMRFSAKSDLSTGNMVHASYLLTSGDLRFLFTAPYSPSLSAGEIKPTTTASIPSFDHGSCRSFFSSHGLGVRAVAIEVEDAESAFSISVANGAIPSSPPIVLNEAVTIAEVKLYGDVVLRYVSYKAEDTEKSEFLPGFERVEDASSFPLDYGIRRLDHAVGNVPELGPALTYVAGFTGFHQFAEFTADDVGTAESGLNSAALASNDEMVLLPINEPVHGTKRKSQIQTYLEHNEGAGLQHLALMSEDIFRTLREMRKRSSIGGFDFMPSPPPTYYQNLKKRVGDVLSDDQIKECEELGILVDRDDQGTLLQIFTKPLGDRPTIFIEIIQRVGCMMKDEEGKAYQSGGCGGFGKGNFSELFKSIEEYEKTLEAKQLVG
Text: as §1

[3] = biological target: T3, Arabidopsis HPPD single point mutant SEQ ID No. 42 (Arabidopsis thaliana, UniProt P93836, P280A); assay: biochemical; conditions: for pI50: P280A mutant (SEQ ID No. 42), 2 mM HPP, 3 minutes incubation
T3 construct: made in house; host or cells: E. coli BL21 (DE3)
T3 sequence (P93836 other isoform, or with tags, fused parts or gaps P280A): as the sequence (P93836 other isoform, or with tags, fused parts or gaps V269A) above, with A274V, P285A counted along it
Text: as §1

[4] = biological target: T4, Arabidopsis HPPD single point mutant SEQ ID No. 44 (Arabidopsis thaliana, UniProt P93836, L368M); assay: biochemical; conditions: for pI50: L368M mutant (SEQ ID No. 44), 2 mM HPP, 3 minutes incubation
T4 construct: made in house; host or cells: E. coli BL21 (DE3)
T4 sequence (P93836 other isoform, or with tags, fused parts or gaps L368M): as the sequence (P93836 other isoform, or with tags, fused parts or gaps V269A) above, with A274V, L373M counted along it
Text: as §1

[5] = biological target: T5, Arabidopsis HPPD single point mutant SEQ ID No. 46 (Arabidopsis thaliana, UniProt P93836, K421I); assay: biochemical; conditions: for pI50: K421I mutant (SEQ ID No. 46), 2 mM HPP, 3 minutes incubation
T5 construct: made in house; host or cells: E. coli BL21 (DE3)
T5 sequence (P93836 other isoform, or with tags, fused parts or gaps K421I): as the sequence (P93836 other isoform, or with tags, fused parts or gaps V269A) above, with A274V, K426I counted along it
Text: as §1

[6] = biological target: T6, Arabidopsis HPPD single point mutant SEQ ID No. 48 (Arabidopsis thaliana, UniProt P93836, K421Q); assay: biochemical; conditions: for pI50: K421Q mutant (SEQ ID No. 48), 2 mM HPP, 3 minutes incubation
T6 construct: made in house; host or cells: E. coli BL21 (DE3)
T6 sequence (P93836 other isoform, or with tags, fused parts or gaps K421Q): as the sequence (P93836 other isoform, or with tags, fused parts or gaps V269A) above, with A274V, K426Q counted along it
Text: as §1

[7] = biological target: T7, Arabidopsis HPPD single point mutant SEQ ID No. 50 (Arabidopsis thaliana, UniProt P93836, K421V); assay: biochemical; conditions: for pI50: K421V mutant (SEQ ID No. 50), 2 mM HPP, 3 minutes incubation
T7 construct: made in house; host or cells: E. coli BL21 (DE3)
T7 sequence (P93836 other isoform, or with tags, fused parts or gaps K421V): as the sequence (P93836 other isoform, or with tags, fused parts or gaps V269A) above, with A274V, K426V counted along it
Text: as §1

[8] = biological target: T8, HPPD enzyme “SEQ ID No. 32” (Arabidopsis thaliana, UniProt P93836); assay: HPLC assay of HPPD in vitro kinetic properties (Km, Vmax, kcat; Ki, Kon, Koff); format: biochemical; conditions: for kinetic parameter / sensitivity of Arabidopsis thaliana HPPD in presence of inhibitor: 2 mM HPP
T8 construct: made in house; host or cells: E. coli BL21 (DE3)
T8 sequence (P93836 with tags, fused parts or gaps): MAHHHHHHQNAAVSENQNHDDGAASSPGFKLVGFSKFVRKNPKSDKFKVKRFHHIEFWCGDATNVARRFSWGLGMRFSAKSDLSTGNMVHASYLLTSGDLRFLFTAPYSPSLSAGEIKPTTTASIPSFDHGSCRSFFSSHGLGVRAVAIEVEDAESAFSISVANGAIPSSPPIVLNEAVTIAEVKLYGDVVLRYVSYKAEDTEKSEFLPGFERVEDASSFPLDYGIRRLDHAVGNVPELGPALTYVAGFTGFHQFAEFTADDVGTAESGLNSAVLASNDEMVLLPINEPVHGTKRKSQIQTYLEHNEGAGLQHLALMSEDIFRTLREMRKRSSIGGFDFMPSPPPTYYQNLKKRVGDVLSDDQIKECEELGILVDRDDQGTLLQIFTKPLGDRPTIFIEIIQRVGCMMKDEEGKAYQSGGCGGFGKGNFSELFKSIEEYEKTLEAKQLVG
Experimental: Km, Vmax, and kcat values for different HPPD enzyme preparations and Ki, K1=Kon, and K−1=Koff for different HPPD inhibitors were determined using a HPLC assay for measurements of HPPD activity. […] All assays were started by the addition of HPPD enzyme to the assay mixture and stopped at a series of times between 0 and 240 s by addition of 200 μl of the reaction mixture to reaction assay tubes containing 20 μl 10% perchloric acid. Precipitated protein was pelleted by a 5 minute centrifugation at 10,000 g.
For Km and Vmax value determinations the initial rates of the HPPD reaction at different substrate concentrations were determined from plots of HGA formed versus time and fitted to the Michaelis-Menten equation for unireactant enzymes using the ID Business Solutions Ltd. (www.idbs.com) XLfit software suite.

[9] = biological target: T9, Arabidopsis thaliana wild type HPPD “SEQ ID No. 32” (Arabidopsis thaliana, UniProt P93836); assay: pI50 determination from dose-response plots of HPPD activity (standard spectrophotometric assay of WO 2009/144079); format: biochemical
T9 construct: made in house; host or cells: E. coli BL21 (DE3)
T9 sequence (P93836 with tags, fused parts or gaps): T8 sequence (P93836 with tags, fused parts or gaps)
Text: as §1

HPPD activity = assay: Colorimetric screening test for active HPPD enzymes (production of brown color); format: cell-based, Escherichia coli; conditions: E. coli with pSE420-HPPDx, 5 mM L-Tyrosine, 16 hours at 37° C.
Experimental: (§2) A YT-broth-type culture medium with 1% agarose, 5 mM L-Tyrosine and 42 mM Succinate, which contains the selection agent for the vector pSE420 (Invitrogen, Karlsruhe, Germany) is poured into deep well plates. E. coli culture in the exponentional growth phase which contains the vector pSE420-HPPDx (HPPDx means any gene coding for a putative HPPD enzyme/protein) is applied to each well.
as §2, with “pSE420” for “pSE420 (Invitrogen, Karlsruhe, Germany)”, “(any” for “(HPPDx means any”
It can be concluded that the two HPPD mutants are not able to convert HPP into homogentisate. […] One can conclude that the amino acid positions 267 and 282 (referring to position in SEQ ID No. 2) are essential for HPPD activity.

[10] = substrate HPP varied 10-400 μM, HPPD SEQ ID No. 32, HPLC assay
[11] = SEQ ID No. 32 (wild type), 2 mM HPP, 3 minutes incubation

T1 sequence (P93836 whole entry E252S): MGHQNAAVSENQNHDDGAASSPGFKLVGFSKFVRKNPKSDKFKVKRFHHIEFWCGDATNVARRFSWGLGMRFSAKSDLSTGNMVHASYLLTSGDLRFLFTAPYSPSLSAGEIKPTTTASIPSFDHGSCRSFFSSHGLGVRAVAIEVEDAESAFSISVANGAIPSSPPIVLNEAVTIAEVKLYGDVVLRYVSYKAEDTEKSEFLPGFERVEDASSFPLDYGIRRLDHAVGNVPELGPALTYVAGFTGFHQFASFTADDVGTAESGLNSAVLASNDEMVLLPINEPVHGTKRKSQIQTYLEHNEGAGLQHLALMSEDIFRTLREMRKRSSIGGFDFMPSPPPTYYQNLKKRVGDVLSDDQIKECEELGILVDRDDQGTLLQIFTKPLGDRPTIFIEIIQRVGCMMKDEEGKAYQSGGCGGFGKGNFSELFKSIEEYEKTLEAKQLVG

## Cc1ccc(C(=O)COc2c(C(=O)c3ccc(Cl)c(C)c3Cl)c(C)nn2C)cc1 [Benzofenap]
[1]
  IC50: 6.31 µM
[2]
  IC50: 6.31 µM
[3]
  IC50: 6.31 µM
[4]
  IC50: < 2.51 µM
[5]
  IC50: 7.94 µM
[6]
  IC50: < 2510 nM
[7]
  IC50: 6.31 µM

## COCCOCc1nc(C(F)(F)F)ccc1C(=O)C1=C(O)C2CCC(C2)C1=O (stereo not drawn) [Bicyclopyrone, 4-hydroxy-3-[[2-[(2-methoxyethoxy)methyl]-6-(trifluoromethyl)-3-pyridinyl]carbonyl]bicyclo[3.2.1]oct-3-en-2-one]
[1]
  IC50: 50.1 µM
[2]
  IC50: 50.1 µM
[3]
  IC50: 50.1 µM
[4]
  IC50: 31.6 µM
[5]
  IC50: 63.1 µM
[6]
  IC50: 20000 nM
[7]
  IC50: 63.1 µM

## CS(=O)(=O)c1cc(C(F)(F)F)ccc1C(=O)C(C#N)C(=O)C1CC1 (stereo not drawn) [Diketonitrile, 2-cyano-3-cyclopropyl-1-(2-methylsulphonyl-4-trifluoromethylphenyl)-propane-1,3-dione]
[8]
  kinetic parameter / sensitivity of Arabidopsis thaliana HPPD in presence of inhibitor: sensitive in the similar range as the carrot HPPD

## O=C(O)C(=O)Cc1ccc(O)cc1 [HPP]
[8]; [10]
  Km: 6.3 µM
  Vmax: 1.2 µM

## CS(=O)(=O)c1ccc(C(=O)C2C(=O)CCCC2=O)c([N+](=O)[O-])c1 [Mesotrione, 2-[4-(methylsulfonyl)-2-nitrobenzoyl]-1,3-cyclohexanedione]
[6]
  IC50: < 2510 nM

## Cc1nn(C)c(O)c1C(=O)c1ccc(C(F)(F)F)cc1S(C)(=O)=O [Pyrasulfotole]
[9]; 2 mM fixed HPP concentration, 3 minutes fixed incubation time, inhibitor 2.5 × 10^−6 to 2.5 × 10^−4 M
  pI50: 5.4
[9]; [11]
  pI50: 5.4
[1]
  pI50: 4.3
[2]
  pI50: 4.4
[3]
  pI50: 4.4
[4]
  pI50: 5.0
[5]
  pI50: 4.3
[6]
  pI50: 4.8
[7]
  pI50: 4.4

## Cc1ccc(S(=O)(=O)Oc2c(C(=O)c3ccc(Cl)cc3Cl)c(C)nn2C)cc1 [Pyrazolat]
[9]; [11]
  pI50: 5.4
[1]
  pI50: 4.7
[2]
  pI50: 4.4
[3]
  pI50: 4.7
[4]
  pI50: 4.9
[5]
  pI50: 4.5
[6]
  pI50: 5.0
[7]
  pI50: 4.5

## CS(=O)(=O)c1ccc(C(=O)C2C(=O)CCCC2=O)c(Cl)c1 [Sulcotrione, 2-[2-chloro-4-(methylsulfonyl)benzoyl]-1,3-cyclohexanedione]
[1]
  IC50: 7.94 µM
[2]
  IC50: 10 µM
[3]
  IC50: 10 µM
[4]
  IC50: 6.31 µM
[5]
  IC50: 10 µM
[6]
  IC50: < 2510 nM
[7]
  IC50: 7.94 µM

## CS(=O)(=O)c1ccc(C(=O)C2C(=O)CCCC2=O)c(Cl)c1COCC(F)(F)F [Tembotrione, 2-[2-chloro-4-(methylsulfonyl)-3-[(2,2,2,-tri-fluoroethoxy)methyl]benzoyl]-1,3-cyclo-hexanedione]
[8]
  kinetic parameter / sensitivity of Arabidopsis thaliana HPPD in presence of inhibitor: comparable range
[2]
  IC50: < 2.51 µM
[3]
  IC50: < 2.51 µM
[4]
  IC50: < 2.51 µM
[6]
  IC50: < 2510 nM
[7]
  IC50: < 2.51 µM

B1: S267A: point mutant S267A of A. thaliana HPPD with N-terminal alanine and 6 histidines (protein)
chain: T8 sequence (P93836 with tags, fused parts or gaps) with S272A
modifications: N-terminal alanine and His6 tag; encoded by SEQ ID No. 33; SITE 2 MISC_FEATURE - Ala; MISC_FEATURE - His Tag made of 6 His
notes: point mutant S267A of A. thaliana HPPD with N-terminal alanine and 6 histidines
HPPD activity
  HPPD activity (production of brown color): inactive

B2: N282A: point mutant N282A of A. thaliana HPPD with N-terminal alanine and 6 histidines (protein)
chain: T8 sequence (P93836 with tags, fused parts or gaps) with N287A
modifications: N-terminal alanine and His6 tag; encoded by SEQ ID No. 35; SITE 2 MISC_FEATURE - Ala; MISC_FEATURE - His Tag made of 6 His
notes: point mutant N282A of A. thaliana HPPD with N-terminal alanine and 6 histidines
HPPD activity
  HPPD activity (production of brown color): inactive

B3: wild type HPPD: Arabidopsis thaliana wild type HPPD polypeptide with N-terminal alanine and 6 histidine amino acids (protein)
chain: T8 sequence (P93836 with tags, fused parts or gaps)
modifications: misc_feature 1..1353 Nucleic acid sequence encoding Arabidopsis HPPD plus containingat the 5' end a nucleic acid encoding an Ala and 6 His aminoacids; misc_feature 4..6 sequence coding for an Ala; misc_feature 7..24 sequence coding for an His Tag containing 6 His
HPPD activity
  HPPD activity (production of brown color): strong brown color
